In EP0525960B1, “Use of rapamycin for the treatment of adult T-cell leukemia/lymphoma” (AMERICAN HOME PRODUCTS CORPORATION, priority 1991, dated 1993):

Key:
Assay type in all cases: cell-based
31008 = assay: Inhibition of ATL cell proliferation (tritiated thymidine incorporation); settings: Homo sapiens, 24 hours, read-out: PERCENT INHIBITION OF ATL CELL PROLIFERATION
Protocol: (§1) The effect of rapamycin on ATL was established in an in vitro standard pharmacological test procedure using ten human HTLV-1 transformed T-cell lines cultured from ATL patients. These cell lines are presently the best models for ATL in humans. Cyclosporin A (CsA) was also evaluated for the purpose of comparison. The procedure used and results obtained are described below.
(§2) ATL cell lines were established according to known literature procedures. ATL5S, ATL3I, and ATL1K were established according to the method of Hoshino [Proc. Natl. Acad. Sci, 80: 6061(1983)]. The cell lines 31008, 31009, 31016 and AT(EGG) were established from peripheral blood of HTLV-1 infected individuals via co-culture with cord blood lymphocytes. The cell line MALN was isolated from lymphoid tumor tissue of an HTLV-1 infected ATL patient seen at Jackson Memorial/University of Miami Medical Center. [Harrington, W.J., Jr., J. Acq. Imm. Def. Dis., 4: 284 (1991)]. The primary cultures BL and GP were initiated from peripheral blood of ATL patients. The MALN, BL, and GP cell lines were initiated without co-cultivation.
(§3) Cells were adjusted to a concentration of 1x10⁶ cells/mL in RPMI 1640 with 15% fetal bovine serum and were supplemented with 50 U/mL penicillin, 50 µg/mL streptomycin, and 2 mM glutamine. […] Drug concentrations evaluated ranged from 1µM to 100 fM. Cultures were incubated at 37°C, 5% CO₂ for 24 hours followed by a 4 hr. pulse with 0.5 µCi of tritiated thymidine. Thymidine incorporation was measured by liquid scintillation counting, and the results expressed in counts per minute (cpm). The results obtained from the mean of four evaluations at each concentration were compared with control values to determine percent inhibition. The following formula was used to calculate the percent inhibition: Percent Inhibition =(cpm[no drug] - cpm[drug])/(cpm[no drug])x 100 [formula] The percent inhibition obtained with rapamycin is shown in the following table.

31016 = assay: as above; settings: Homo sapiens, 24 hours, read-out: PERCENT INHIBITION OF ATL CELL PROLIFERATION
Protocol: as §1, §2, §3

ATEGG = assay: as above; settings: Homo sapiens, 24 hours, read-out: PERCENT INHIBITION OF ATL CELL PROLIFERATION
Protocol: as §1, §2, §3

ATL1K = assay: as above; settings: Homo sapiens, 24 hours, read-out: PERCENT INHIBITION OF ATL CELL PROLIFERATION
Protocol: as §1, §2, §3

ATL3I = assay: as above; settings: Homo sapiens, 24 hours, read-out: PERCENT INHIBITION OF ATL CELL PROLIFERATION
Protocol: as §1, §2, §3

BL = assay: as above; settings: Homo sapiens, 24 hours, read-out: PERCENT INHIBITION OF ATL CELL PROLIFERATION
Protocol: as §1, §2, §3

GP = assay: as above; settings: Homo sapiens, 24 hours, read-out: PERCENT INHIBITION OF ATL CELL PROLIFERATION
Protocol: as §1, §2, §3

MALN = assay: as above; settings: Homo sapiens, 24 hours, read-out: PERCENT INHIBITION OF ATL CELL PROLIFERATION
Protocol: as §1, §2, §3

31009 = assay: as above; settings: Homo sapiens, 24 hours, read-out: PERCENT INHIBITION OF ATL CELL PROLIFERATION
From the text: as §2
(§4) Cells were adjusted to a concentration of 1x10⁶ cells/mL in RPMI 1640 with 15% fetal bovine serum and were supplemented with 50 U/mL penicillin, 50 µg/mL streptomycin, and 2 mM glutamine. […] Drug concentrations evaluated ranged from 1µM to 100 fM. Cultures were incubated at 37°C, 5% CO₂ for 24 hours followed by a 4 hr. pulse with 0.5 µCi of tritiated thymidine. Thymidine incorporation was measured by liquid scintillation counting, and the results expressed in counts per minute (cpm).

ATL5S = assay: as above; settings: Homo sapiens, 24 hours, read-out: PERCENT INHIBITION OF ATL CELL PROLIFERATION
From the text: as §2, §4

[1] = test system: ten human HTLV-1 transformed T-cell lines; assay: Inhibition of ATL cell proliferation, summary over the panel of ten cell lines; settings: in 4 of the cell lines at a concentration of 1 nM, read-out: reduction in proliferation
Protocol: as §1
as §2, with “The MALN, BL, and GP cell lines were initiated without co-cultivation.” left out
as §4, with “Cultures were incubated at 37°C, 5% CO₂ for 24 hours followed by a 4 hr. pulse with 0.5 µCi of tritiated thymidine.” left out, “(cpm). […]” for “(cpm).”

`CO[C@H]1C[C@@H]2CC[C@@H](C)[C@@](O)(O2)C(=O)C(=O)N2CCCC[C@H]2C(=O)O[C@H]([C@H](C)C[C@@H]2CC[C@@H](O)[C@H](OC)C2)CC(=O)[C@H](C)/C=C(\C)[C@@H](O)[C@@H](OC)C(=O)[C@H](C)C[C@H](C)/C=C/C=C/C=C/1C` [Rapamycin] gave an inhibition at 1 pM (31008; Rapamycin Concentration 1 pM) of 30%, an inhibition at 10 pM (31008; Rapamycin Concentration 10 pM) of 31% and an inhibition at 0.0001 µM (31008; Rapamycin Concentration 100 pM) of 45%. It also gave an inhibition at 0.001 µM (31008; Rapamycin Concentration 1 nM) of 54%, an inhibition at 0.01 µM (31008; Rapamycin Concentration 10 nM) of 58% and an inhibition at 0.1 µM (31008; Rapamycin Concentration 100 nM) of 68%. It also gave an inhibition at 1 µM (31008; Rapamycin Concentration 1 µM) of 69%, an inhibition at 100 fM (31008; Rapamycin Concentration 100 fM) of 29% and an inhibition at 1 pM (31016; Rapamycin Concentration 1 pM) of 50%. For the same compound, the inhibition at 10 pM (31016; Rapamycin Concentration 10 pM) was 47%, the inhibition at 0.0001 µM (31016; Rapamycin Concentration 100 pM) was 49% and the inhibition at 0.001 µM (31016; Rapamycin Concentration 1 nM) was 48%. The inhibition at 0.01 µM (31016; Rapamycin Concentration 10 nM) was 49%, the inhibition at 0.1 µM (31016; Rapamycin Concentration 100 nM) was 56% and the inhibition at 1 µM (31016; Rapamycin Concentration 1 µM) was 59%. It also gave an inhibition at 100 fM (31016; Rapamycin Concentration 100 fM) of 44%, an inhibition at 1 pM (ATEGG; Rapamycin Concentration 1 pM) of 48% and an inhibition at 10 pM (ATEGG; Rapamycin Concentration 10 pM) of 44%. It also gave an inhibition at 0.0001 µM (ATEGG; Rapamycin Concentration 100 pM) of 49%, an inhibition at 0.001 µM (ATEGG; Rapamycin Concentration 1 nM) of 53% and an inhibition at 0.01 µM (ATEGG; Rapamycin Concentration 10 nM) of 45%. The inhibition at 0.1 µM (ATEGG; Rapamycin Concentration 100 nM) was 60%, the inhibition at 1 µM (ATEGG; Rapamycin Concentration 1 µM) was 58% and the inhibition at 100 fM (ATEGG; Rapamycin Concentration 100 fM) was 44%. The inhibition at 1 pM (ATL1K; Rapamycin Concentration 1 pM) was 15%, the inhibition at 10 pM (ATL1K; Rapamycin Concentration 10 pM) was 12% and the inhibition at 0.0001 µM (ATL1K; Rapamycin Concentration 100 pM) was 23%. The inhibition at 0.001 µM (ATL1K; Rapamycin Concentration 1 nM) was 26%, the inhibition at 0.01 µM (ATL1K; Rapamycin Concentration 10 nM) was 18% and the inhibition at 0.1 µM (ATL1K; Rapamycin Concentration 100 nM) was 32%. The inhibition at 1 µM (ATL1K; Rapamycin Concentration 1 µM) was 19%, the inhibition at 100 fM (ATL1K; Rapamycin Concentration 100 fM) was 15% and the inhibition at 1 pM (ATL3I; Rapamycin Concentration 1 pM) was 11%. It also gave an inhibition at 10 pM (ATL3I; Rapamycin Concentration 10 pM) of 6%, an inhibition at 0.0001 µM (ATL3I; Rapamycin Concentration 100 pM) of 11% and an inhibition at 0.001 µM (ATL3I; Rapamycin Concentration 1 nM) of 18%. For the same compound, the inhibition at 0.01 µM (ATL3I; Rapamycin Concentration 10 nM) was 15%, the inhibition at 0.1 µM (ATL3I; Rapamycin Concentration 100 nM) was 17% and the inhibition at 1 µM (ATL3I; Rapamycin Concentration 1 µM) was 28%. The inhibition at 100 fM (ATL3I; Rapamycin Concentration 100 fM) was 7%, the inhibition at 1 pM (BL; Rapamycin Concentration 1 pM) was 56% and the inhibition at 10 pM (BL; Rapamycin Concentration 10 pM) was 55%. The inhibition at 0.0001 µM (BL; Rapamycin Concentration 100 pM) was 65%, the inhibition at 0.001 µM (BL; Rapamycin Concentration 1 nM) was 73% and the inhibition at 0.01 µM (BL; Rapamycin Concentration 10 nM) was 76%. It also gave an inhibition at 0.1 µM (BL; Rapamycin Concentration 100 nM) of 79%, an inhibition at 1 µM (BL; Rapamycin Concentration 1 µM) of 80% and an inhibition at 100 fM (BL; Rapamycin Concentration 100 fM) of 51%. It also gave an inhibition at 1 pM (GP; Rapamycin Concentration 1 pM) of 20%, an inhibition at 10 pM (GP; Rapamycin Concentration 10 pM) of 14% and an inhibition at 0.0001 µM (GP; Rapamycin Concentration 100 pM) of 39%. The inhibition at 0.001 µM (GP; Rapamycin Concentration 1 nM) was 42%, the inhibition at 0.01 µM (GP; Rapamycin Concentration 10 nM) was 46% and the inhibition at 0.1 µM (GP; Rapamycin Concentration 100 nM) was 46%. It also gave an inhibition at 1 µM (GP; Rapamycin Concentration 1 µM) of 54%, an inhibition at 100 fM (GP; Rapamycin Concentration 100 fM) of 23% and an inhibition at 1 pM (MALN; Rapamycin Concentration 1 pM) of 36%. It also gave an inhibition at 10 pM (MALN; Rapamycin Concentration 10 pM) of 26%, an inhibition at 0.0001 µM (MALN; Rapamycin Concentration 100 pM) of 37% and an inhibition at 0.001 µM (MALN; Rapamycin Concentration 1 nM) of 43%. It also gave an inhibition at 0.01 µM (MALN; Rapamycin Concentration 10 nM) of 41%, an inhibition at 0.1 µM (MALN; Rapamycin Concentration 100 nM) of 54% and an inhibition at 1 µM (MALN; Rapamycin Concentration 1 µM) of 55%. For the same compound, the inhibition at 100 fM (MALN; Rapamycin Concentration 100 fM) was 36%, the inhibition at 1 pM (31009; Rapamycin Concentration 1 pM) was 59% and the inhibition at 10 pM (31009; Rapamycin Concentration 10 pM) was 47%. For the same compound, the inhibition at 0.0001 µM (31009; Rapamycin Concentration 100 pM) was 61%, the inhibition at 0.001 µM (31009; Rapamycin Concentration 1 nM) was 68% and the inhibition at 0.01 µM (31009; Rapamycin Concentration 10 nM) was 67%. It also gave an inhibition at 0.1 µM (31009; Rapamycin Concentration 100 nM) of 70%, an inhibition at 1 µM (31009; Rapamycin Concentration 1 µM) of 71% and an inhibition at 100 fM (31009; Rapamycin Concentration 100 fM) of 60%. For the same compound, the inhibition at 1 pM (ATL5S; Rapamycin Concentration 1 pM) was 14%, the inhibition at 10 pM (ATL5S; Rapamycin Concentration 10 pM) was 38% and the inhibition at 0.0001 µM (ATL5S; Rapamycin Concentration 100 pM) was 47%. The inhibition at 0.001 µM (ATL5S; Rapamycin Concentration 1 nM) was 48%, the inhibition at 0.01 µM (ATL5S; Rapamycin Concentration 10 nM) was 49% and the inhibition at 0.1 µM (ATL5S; Rapamycin Concentration 100 nM) was 58%. The inhibition at 1 µM (ATL5S; Rapamycin Concentration 1 µM) was 59%, the inhibition at 100 fM (ATL5S; Rapamycin Concentration 100 fM) was 36% and the inhibition at 0.001 µM [1] was 50%.
